Measurements reported in US7879795B2, “Enhancement of tigecycline potency using efflux pump inhibitors” (Mpex Pharmaceuticals, Inc., priority 2004, dated 2011).

What was measured:
[1] = tested on: Burkholderia, Proteus, Morganella, Providencia and Serratia; experiment: Potentiation of tigecycline against other gram-negative clinical isolates; type: cell-based; conditions: in words
Protocol: (§1) To further characterize the clinical potential of tigecycline/EPI combinations, the microbiological activity of tigecycline in combination with compound 21 was investigated using clinical isolates of P. aeruginosa and other gram-negative bacteria. In several experiments, described below, the impact of a fixed concentration of compound 21 (2.5 μg/ml) on susceptibility to tigecycline was determined.
Strains with decreased susceptibility to tigecycline were also present among representatives of Burkholderia, Proteus, Morganella, Providencia and Serratia. […] While not being bound by any particular theory, it is probable that the lack of potentiation by compound 21 is due to limited uptake of this particular EPI across the outer membrane of these bacteria, rather than the absence of efflux pumps.

[2] = tested on: Strain S41, a clinical isolate; experiment: microbe, parasite or virus in culture; type: cell-based, P. aeruginosa; conditions: strain S41
[3] = tested on: Enterobacter aerogenes 19; experiment: Antibiotic MIC with fixed concentration of compound 21, Enterobacter aerogenes 19; type: cell-based
[4] = tested on: strains of Klebsiella, Enterobacter and Citrobacter; experiment: Potentiation of tigecycline against enterobacteria with decreased susceptibility to tigecycline; type: cell-based; conditions: in words
Protocol: as §1
The impact of compound 21 on the activity of tigecycline against representative members of Enterobacteriacaea was also tested.

[5] = tested on: P. aeruginosa, PAM1723, overexpressing the MexAB-OprM efflux pump; experiment: Levofloxacin potentiation checkerboard assay (broth microdilution); type: cell-based; conditions: for MPC8: EPI concentration necessary to increase susceptibility to levofloxacin eight-fold
Outline: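 Checkerboard of levofloxacin against efflux pump inhibitors (EPIs) in Mueller-Hinton broth (MHB), with the EPIs titrated down the rows. Plates were incubated 20 h at 35 °C; growth was read at 650 nm and also scored visually.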

Stability in human serum = type: in vitro ADME; conditions: in words
Protocol: FIG. 9 compares the stability of compounds 1 and 3 in human serum as a function of time. Both compound 1 and compound 3 were stable after 18 hours of incubation with human serum.

[6] = tested on: strain 29A2 of P. aeruginosa overexpressing MexAB-OprM efflux pump; experiment: Neutropenic mice lung model of PA infection; type: in vivo; conditions: for bacterial load in infected lungs, EPI with levofloxacin: levofloxacin 30 mg/kg SQ plus EPI IP
Protocol: Neutropenia was induced by cyclophosphamide 100 mg/kg IP on days 3 and 1 prior to infection. The strain 29A2 of P. aeruginosa overexpressing MexAB-OprM efflux pump was grown overnight in Mueller-Hinton Broth (MHB). The next day overnight culture was diluted in fresh MHB and was allowed to re-grow to ˜10^8 CFU/mL (OD600˜0.3). The culture was spun down, washed twice with phosphate buffered saline (PBS) and re-suspended in PBS to ˜4×10^7 CFU/mL. 50 μl of inoculum was used for intratracheal instillation of mice, which were anesthetized with sevoflourane/oxygen. […] Four mice from each treatment group were euthanized at various times after the start of treatment. The lungs were removed aseptically, homogenized in saline, and immediately plated to determine bacterial load (CFU/ml) in infected lungs. P. aeruginosa is plotted as a function of time in FIG. 20.

[7] = tested on: P. aeruginosa overexpressing (strain PAM1723) or lacking (PAM1626) efflux pumps; experiment: Stability in P. aeruginosa cultures; type: in vitro ADME; conditions: 50 μg/ml, PAM1723 and PAM1626
Protocol: Overnight cultures of two different strains of P. aeruginosa overexpressing (strain PAM1723) or lacking (PAM1626) efflux pumps were incubated with compounds 1 or 3 at 50 μg/ml for various times. Compounds were extracted using 4% TCA and analysed by LC/MC/MC.

[8] = Tissue levels in rat six-hour after 8.4 mg/kg IV bolus; type: in vivo; conditions: rat kidney, liver and lung; 8.4 mg/kg IV bolus; in words
Protocol: Tissue levels of compounds 1, 2, 3 and 4 were evaluated in kidney, liver and lung six-hour after 8.4 mg/kg IV bolus administration. FIG. 13 depicts the levels as a function of time.
Compound 67, which is the expected metabolite of proteolytic intracellular degradation of compound 3, was detected in rat tissues after IV infusion, confirming the tissue-specific degradation of compound 3 (Tables 9A, B).

[9] = tested on: P. aeruginosa strain PAM1032 overexpressing MexAB-OprM efflux pump; experiment: Mouse sepsis model of PA infection (ED50 of levofloxacin); type: in vivo
Protocol: P. aeruginosa strain PAM1032 overexpressing MexAB-OprM efflux pump was grown overnight in Mueller-Hinton Broth (MHB). The next day, the overnight culture was diluted in fresh MHB and was allowed to re-grow to ˜10^8 CFU/mL (OD600˜0.3). The culture was spun down, washed twice with phosphate buffered saline (PBS) and re-suspend in PBS to ˜1.2×10^7 CFU/mL (OD=0.12). Next this culture was mixed 1:1 with 14% hog-gastric mucin in PBS to give a final inoculum of […].
The effect of the EPI at 50 mg/kg was determined according to the following experimental design: […]

[10] = Stability in human kidney tissue preparations; type: in vitro ADME; conditions: in words
Source text: The pattern of in vitro stability of compound 3 (stable in serum but unstable in tissues) observed in rodents was also reproduced using human kidney tissues or serum. FIG. 7 compares the in vitro stability of compounds 1 and 3 in human kidney tissue preparations.
FIG. 8 depicts formation of the metabolite, compound 67, in human kidney tissue. Concomitant with the disappearance of compound 3, generation of the expected metabolite of the presumed intralysosomal degradation, compound 67, was detected using human kidney.

[11] = tested on: strain PAM1723 of P. aeruginosa; type: in vitro ADME; conditions: in words
Protocol: Stability of compounds was also evaluated using a bioassay. The test compound at 320 μg/ml was treated with rabbit kidney supernatant for 0, 0.5, 1 and 2 hours.

[12] = EPI 0 μg/ml (levofloxacin alone)

Row | SMILES | Antibiotic (levofloxacin) MIC in the presence of EPI [5, 12] [µg/mL] | Antibiotic (levofloxacin) MIC in the presence of EPI ([5]; EPI 1.25 μg/ml) [µg/mL] | Antibiotic (levofloxacin) MIC in the presence of EPI ([5]; EPI 5 μg/ml) [µg/mL] | Antibiotic (levofloxacin) MIC in the presence of EPI ([5]; EPI 10 μg/ml) [µg/mL] | Antibiotic (levofloxacin) MIC in the presence of EPI ([5]; EPI 20 μg/ml) [µg/mL] | Antibiotic (levofloxacin) MIC in the presence of EPI ([5]; EPI 40 μg/ml) [µg/mL] | Antibiotic (levofloxacin) MIC in the presence of EPI ([5]; EPI 80 μg/ml) [µg/mL] | Antibiotic (levofloxacin) MIC in the presence of EPI ([5]; EPI […]) [µg/mL] | MPC8 [5] [µg/mL] | stability after 18 hours of incubation with human serum (Stability in human serum) | bacterial load in infected lungs, EPI with levofloxacin [6] | stability in cultures of tested bacterial strains [7] | tissue levels at 6 hours after IV injection [8] | other results
1 | NCCC[C@H](N)C(=O)N[C@H](Cc1ccc(C(F)(F)F)cc1)C(=O)Nc1cnc2ccccc2c1 [Compound 21, 2-(S),5-Diamino-pentanoic acid [1-(R)-(quinolin-3-ylcarbamoyl)-2-(4-trifluoromethyl-phenyl)-ethyl]amide] |  |  |  |  |  |  |  |  |  |  |  |  |  | effect on susceptibility to tigecycline [1]: did not decreased susceptibility to tigecycline; Tigecycline MIC with Compound 21 at 5 μg/ml [2]: 0.125 µg/mL; Mutation Frequency on Tigecycline at 4 μg/ml with Compound 21 at 10 μg/ml ([2]; 4× MIC): <1.5 × 10^−10; reduction of the frequency of emergence of tigecycline resistance ([2]; compound 21 at 10 μg/ml): at least three orders of magnitude; Azi + EPI (MIC) ([3]; azithromycin MIC with compound 21): 0.5; Levo + EPI at […] (MIC) ([3]; levofloxacin MIC with compound 21 at […]): 16; Tig + EPI at […] (MIC) ([3]; tigecycline MIC with compound 21 at […]): 0.25; potentiation of tigecycline against strains with decreased susceptibility [4]: potentiated tigecycline
2 | NCCC[C@@H](N)C(=O)N[C@H](CCc1ccccc1)C(=O)Nc1cnc2ccccc2c1 [Compound 1, 2-(R),5-Diamino-pentanoic acid [3-phenyl-1-(R)-(quinolin-3-ylcarbamoyl)-propyl]-amide] | 2 | 2 | 0.5 | 0.06 | 0.03 | 0.015 | 0.008 | 1 | 10 | stable | significantly decreased bacterial load | stable | relatively high levels | growth of P. aeruginosa in infected lungs, EPI alone ([6]; EPI 100 mg/kg IP alone (0/100) versus no addition): No difference in growth; decrease of ED50 of levofloxacin ([9]; EPI at 50 mg/kg IP, survival at 24 hours): 4 fold
3 | NCCC[C@H](N)C(=O)N[C@H](CCc1ccccc1)C(=O)Nc1cnc2ccccc2c1 [Compound 3, 2-(S),5-Diamino-pentanoic acid [3-phenyl-1-(R)-(quinolin-3-ylcarbamoyl)-propyl]-amide] | 2 | 2 | 0.25 | 0.03 | 0.015 | 0.015 | 0.015 | 1 | 10 | stable | dose-dependent efficacy in levofloxacin potentiation | stable | very low level | degradation in homogenates prepared from frozen cadaverous human kidney [10]: Time-dependent degradation; pH dependence of degradation in human kidney homogenates [10]: stronger at lower pH; change of EPI activity after treatment with supernatant of rabbit kidney homogenate [11]: time-dependent reduction of the EPI activity; decrease in ED50 of levofloxacin ([9]; increasing concentrations of EPI, dose-dependent): up to 4 fold
